# Test results as given in patent US20250353820A1, “ANTIVIRAL PYRAZOLOPYRIDINONE COMPOUNDS” (Novartis AG, priority 2019, published 2025).
# Target: human HSV DNA polymerase UL30 (Human herpesvirus 1 (strain 17) (HHV-1) (Human herpes simplex virus 1), UniProt P04293)
# Assay: biochemical
# Conditions: 625 pM HSV polymerase, 20 minutes at room temperature; read-out: HSV-polymerase Biochemical IC50
row,SMILES,IC50
1,"Cn1nc(C(=O)NCc2ccc(C#N)cc2)c2c1C(=O)N(CC1(S(=O)(=O)C(C)(C)CN3CC4(COC4)C3)CC1)CC2 [Example 67, N-(4-Cyanobenzyl)-1-methyl-6-((1-((2-methyl-1-(2-oxa-6-azaspiro[3.3]heptan-6-yl)propan-2-yl)sulfonyl)cyclopropyl)methyl)-7-oxo-4,5,6,7-tetrahydro-1H-pyrazolo[3,4-c]pyridine-3-carboxamide]",48 nM
2,"Cn1nc(C(=O)NCc2ccc(C#N)cc2)c2c1C(=O)N(CC1(S(=O)(=O)C(C)(C)CN3CCC(O)C3)CC1)CC2 (centres unmarked) [Example 68, N-(4-Cyanobenzyl)-6-((1-((1-(3-hydroxypyrrolidin-1-yl)-2-methylpropan-2-yl)sulfonyl)cyclopropyl)methyl)-1-methyl-7-oxo-4,5,6,7-tetrahydro-1H-pyrazolo[3,4-c]pyridine-3-carboxamide]",21 nM
3,"Cn1nc(C(=O)NCc2ccc(C#N)cc2)c2c1C(=O)N(CC1(S(=O)(=O)C(C)(C)CNCCO)CC1)CC2 [Example 69, N-(4-Cyanobenzyl)-6-((1-((1-((2-hydroxyethyl)amino)-2-methylpropan-2-yl)sulfonyl)cyclopropyl)methyl)-1-methyl-7-oxo-4,5,6,7-tetrahydro-1H-pyrazolo[3,4-c]pyridine-3-carboxamide]",40 nM
4,"Cn1nc(C(=O)NCc2ccc(C#N)cc2)c2c1C(=O)N(CC1(S(=O)(=O)C(C)(C)CN)CC1)CC2 [Example 70, 6-((1-((1-Amino-2-methylpropan-2-yl)sulfonyl)cyclopropyl)methyl)-N-(4-cyanobenzyl)-1-methyl-7-oxo-4,5,6,7-tetrahydro-1H-pyrazolo[3,4-c]pyridine-3-carboxamide]",37 nM
5,"COC(=O)NCC(C)(C)S(=O)(=O)C1(CN2CCc3c(C(=O)NCc4ccc(C#N)cc4)nn(C)c3C2=O)CC1 [Example 73, Methyl (2-((1-((3-((4-cyanobenzyl)carbamoyl)-1-methyl-7-oxo-1,4,5,7-tetrahydro-6H-pyrazolo[3,4-c]pyridin-6-yl)methyl)cyclopropyl)sulfonyl)-2-methylpropyl)carbamate]",40 nM
6,"Cn1nc(C(=O)NCc2ccc(C#N)cc2)c2c1C(=O)N(CC1(S(=O)(=O)C(C)(C)CNC(=O)CN)CC1)CC2 [Example 74, 6-((1-((1-(2-Aminoacetamido)-2-methylpropan-2-yl)sulfonyl)cyclopropyl)methyl)-N-(4-cyanobenzyl)-1-methyl-7-oxo-4,5,6,7-tetrahydro-1H-pyrazolo[3,4-c]pyridine-3-carboxamide]",65 nM
7,"C[C@@H](N)C(=O)NCC(C)(C)S(=O)(=O)C1(CN2CCc3c(C(=O)NCc4ccc(C#N)cc4)nn(C)c3C2=O)CC1 [Example 75, (R)-6-((1-((1-(2-Aminopropanamido)-2-methylpropan-2-yl)sulfonyl)cyclopropyl)methyl)-N-(4-cyanobenzyl)-1-methyl-7-oxo-4,5,6,7-tetrahydro-1H-pyrazolo[3,4-c]pyridine-3-carboxamide]",133 nM
8,"C[C@H](N)C(=O)NCC(C)(C)S(=O)(=O)C1(CN2CCc3c(C(=O)NCc4ccc(C#N)cc4)nn(C)c3C2=O)CC1 [Example 76, (S)-6-((1-((1-(2-Aminopropanamido)-2-methylpropan-2-yl)sulfonyl)cyclopropyl)methyl)-N-(4-cyanobenzyl)-1-methyl-7-oxo-4,5,6,7-tetrahydro-1H-pyrazolo[3,4-c]pyridine-3-carboxamide]",123 nM
9,"Cn1nc(C(=O)NCc2ccc(C#N)cc2)c2c1C(=O)N(CC1(S(=O)(=O)C(C)(C)CNC(=O)C(C)(C)N)CC1)CC2 [Example 77, 6-((1-((1-(2-Amino-2-methylpropanamido)-2-methylpropan-2-yl)sulfonyl)cyclopropyl)methyl)-N-(4-cyanobenzyl)-1-methyl-7-oxo-4,5,6,7-tetrahydro-1H-pyrazolo[3,4-c]pyridine-3-carboxamide]",142 nM
10,"CN(C)CC(=O)NCC(C)(C)S(=O)(=O)C1(CN2CCc3c(C(=O)NCc4ccc(C#N)cc4)nn(C)c3C2=O)CC1 [Example 78, N-(4-Cyanobenzyl)-6-((1-((1-(2-(dimethylamino)acetamido)-2-methylpropan-2-yl)sulfonyl)cyclopropyl)methyl)-1-methyl-7-oxo-4,5,6,7-tetrahydro-1H-pyrazolo[3,4-c]pyridine-3-carboxamide]",206 nM
11,"Cn1nc(C(=O)NCc2ccc(C#N)cc2)c2c1C(=O)N(CC1(S(=O)(=O)C(C)(C)COC(F)(F)CO)CC1)CC2 [Example 84, N-(4-Cyanobenzyl)-6-((1-((1-(1,1-difluoro-2-hydroxyethoxy)-2-methylpropan-2-yl)sulfonyl)cyclopropyl)methyl)-1-methyl-7-oxo-4,5,6,7-tetrahydro-1H-pyrazolo[3,4-c]pyridine-3-carboxamide]",45 nM
12,"Cn1nc(C(=O)NCc2ccc(C#N)cc2)c2c1C(=O)N(CC1(S(=O)(=O)C(C)(C)COC(F)(F)CN)CC1)CC2 [Example 85, 6-((1-((1-(2-Amino-1,1-difluoroethoxy)-2-methylpropan-2-yl)sulfonyl)cyclopropyl)methyl)-N-(4-cyanobenzyl)-1-methyl-7-oxo-4,5,6,7-tetrahydro-1H-pyrazolo[3,4-c]pyridine-3-carboxamide]",49 nM
13,"Cn1nc(C(=O)NCc2ccc(C#N)cc2)c2c1C(=O)N(CC1(S(=O)(=O)C(C)(C)COCC(C)(C)O)CC1)CC2 [Example 86, N-(4-Cyanobenzyl)-6-((1-((1-(2-hydroxy-2-methylpropoxy)-2-methylpropan-2-yl)sulfonyl)cyclopropyl)methyl)-1-methyl-7-oxo-4,5,6,7-tetrahydro-1H-pyrazolo[3,4-c]pyridine-3-carboxamide]",159 nM
14,"Cn1nc(C(=O)NCc2ccc(Cl)cc2)c2c1C(=O)N(CC1(S(=O)(=O)C(C)(C)COCCO)CC1)CC2 [Example 88, N-(4-Chlorobenzyl)-6-((1-((1-(2-hydroxyethoxy)-2-methylpropan-2-yl)sulfonyl)cyclopropyl)methyl)-1-methyl-7-oxo-4,5,6,7-tetrahydro-1H-pyrazolo[3,4-c]pyridine-3-carboxamide]",39 nM
15,"Cn1nc(C(=O)NCc2ccc(C#N)cc2)c2c1C(=O)N(CC1(S(=O)(=O)C3(COCCN)CC3)CC1)CC2 [Example 96, 6-((1-((1-((2-aminoethoxy)methyl)cyclopropyl)sulfonyl)cyclopropyl)methyl)-N-(4-cyanobenzyl)-1-methyl-7-oxo-4,5,6,7-tetrahydro-1H-pyrazolo[3,4-c]pyridine-3-carboxamide]",20 nM
16,"CNCCOCC(C)(C)S(=O)(=O)C1(CN2CCc3c(C(=O)NCc4ccc(C#N)cc4)nn(C)c3C2=O)CC1 [Example 101, N-(4-Cyanobenzyl)-1-methyl-6-((1-((2-methyl-1-(2-(methylamino)ethoxy)propan-2-yl)sulfonyl)cyclopropyl)methyl)-7-oxo-4,5,6,7-tetrahydro-1H-pyrazolo[3,4-c]pyridine-3-carboxamide]",32 nM
17,"Cn1nc(C(=O)NCc2ccc(C#N)cc2)c2c1C(=O)N(CC1(S(=O)(=O)C(C)(C)COC3CNC3)CC1)CC2 [Example 102, 6-((1-((1-(Azetidin-3-yloxy)-2-methylpropan-2-yl)sulfonyl)cyclopropyl)methyl)-N-(4-cyanobenzyl)-1-methyl-7-oxo-4,5,6,7-tetrahydro-1H-pyrazolo[3,4-c]pyridine-3-carboxamide]",42 nM
